Earlier results on three compounds are cited in patent US20030031589A1, “Control of gaseous sterilisation” (priority 2002, published 2003).

The subject of one series is bacillus subtilis. To be noted: aqueous solutions; 'D' values depend on concentration and temperature.
For series [1] the following is noted: high relative humidity.

Molecules are shown by their SMILES. Like-named read-outs stand apart in the source and are kept apart here.

On to `OO` [hydrogen peroxide], for which the sporicidal activity entry with bacillus subtilis is on record as “sporicidal”.
Consider `C=O` [formalin vapour, formaldehyde], for which, in series [1], the “effectiveness of vapour vs relative humidity” value is given as “more effective at high relative humidity”.
As to `CC(=O)OO` [Peracetic vapour, peracetic acid], the effectiveness of vapour entry is reported as “ineffective” with spores (RH of 20%) and “effective” in the series with spores (RH of 80%).
